Laboratory results taken from paper PMC4192315, “An Efficient Preparation of Mulberroside A from the Branch Bark of Mulberry and Its Effect on the Inhibition of Tyrosinase Activity” (PLoS ONE, 2014).
“Also recorded” adds a separate entry of the source. Read-outs that look alike come from different tables or passages of the source.

What was measured:
[1] = target: monophenolase activity of the mushroom tyrosinase (Agaricus bisporus, UniProt C7FF04); experiment: Inhibition of monophenolase activity of mushroom tyrosinase (L-tyrosine as substrate, absorbance at 475 nm); format: biochemical; conditions: for Inhibition type: Lineweaver-Burk plots; for Inhibition mechanism: plot of V against [E]
Sequence of monophenolase activity of the mushroom tyrosinase (C7FF04 1-392): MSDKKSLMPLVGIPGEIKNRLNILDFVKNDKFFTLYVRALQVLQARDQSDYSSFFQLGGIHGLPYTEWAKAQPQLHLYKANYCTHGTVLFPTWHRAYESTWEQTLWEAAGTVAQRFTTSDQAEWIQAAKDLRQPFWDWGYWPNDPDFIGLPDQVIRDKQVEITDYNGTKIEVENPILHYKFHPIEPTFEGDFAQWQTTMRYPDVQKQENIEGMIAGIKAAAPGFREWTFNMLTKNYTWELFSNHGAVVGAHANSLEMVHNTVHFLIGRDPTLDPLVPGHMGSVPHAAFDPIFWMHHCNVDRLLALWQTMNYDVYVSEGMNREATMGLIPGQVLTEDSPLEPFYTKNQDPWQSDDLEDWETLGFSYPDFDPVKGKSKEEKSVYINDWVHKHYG
Experimental: The measurement of the sample's inhibitory activity on monophenolase activity was based on 0.5 mmol/L L-tyrosine as the substrate. The total reaction volume was 3.0 mL, which included 2.8 mL substrate solution, 100 µL different concentrations of the sample solutions and 100 µL mushroom tyrosinase solution. The substrate and enzyme solution were dissolved in 50 mmol/L NaH2PO4-Na2HPO4 temporary buffer solution (pH 6.8), with a substrate concentration of 0.5 mmol/L and with an enzyme solution concentration of 1.0 mg/mL. The samples were dissolved in DMSO. First, 100 µL sample solution was added, then 2.8 mL substrate solution, which was pre-incubated at 30°C, was added, and last, 100 µL enzyme solution was added and immediately mixed. The curve was drawn using real-time tracking of the optical density change over time at 475 nm. The measuring instrument was a Hitachi U3000 UV-visible spectrophotometer. The enzyme activity was obtained from the slope of the line. The sample concentration-response curve was plotted as the inhibition rate of samples to the enzyme against the concentrations of effectors.
(§1) The concentration of the substrate was fixed in 3.0 mL of 50 mmol/L NaH2PO4-Na2HPO4 temporary buffer solution (pH 6.8); however, the amount of enzyme was changed to determine the effects of different concentrations of sample on the reaction of mushroom tyrosinase catalysing L-tyrosine or L-DOPA as substrates. Mapping the reaction rate in terms of the amount of enzyme determined whether the inhibition was a reversible reaction.
(§2) And the inhibition type and inhibition constant were determined as follows. The concentration of the enzyme solution was fixed in 3.0 mL of 50 mmol/L NaH2PO4-Na2HPO4 temporary buffer solution (pH 6.8); however, the amount of substrate (L-tyrosine or L-DOPA) was changed to determine the effects of different concentrations of effectors on the reaction of mushroom tyrosinase catalysing the substrate. Using the Lineweaver-Burk method, the curve was plotted as the reciprocal of the reaction rate 1/V against the reciprocal of the substrate 1/[S] to determine the type of inhibition. If the lines intersected on the y-axis, then competitive inhibition was indicated. If the lines intersected on the x-axis, then noncompetitive inhibition was indicated. If the lines intersected in the […] quadrant, then this inhibition was mixed type 1 or 2. If the lines were parallel, then anticompetitive inhibition was indicated. The inhibition constant of the effectors on tyrosinase (KI) and the inhibition constants of the enzyme-substrate complex (KIS) were obtained by a secondary plot of the concentration of the effectors against the slope of the line and the y-axis intercept, respectively.

[2] = target: diphenolase activity of the mushroom tyrosinase (Agaricus bisporus, UniProt C7FF04); experiment: Inhibition of diphenolase activity of mushroom tyrosinase (L-DOPA as substrate, absorbance at 475 nm); format: biochemical; conditions: for Inhibition type: Lineweaver-Burk plots; for Inhibition mechanism: plot of V against [E]
Sequence of diphenolase activity of the mushroom tyrosinase (C7FF04 1-392): as above
Experimental: The measurement of the sample's inhibitory activity on diphenolase activity was based on 0.5 mmol/L L-DOPA as the substrate. The experimental procedure and calculations were identical to those above-mentioned procedures and calculations.
as §1, §2

mushroom tyrosinase [3] = experiment: Effect on the total process of dopachrome synthesis (consecutive UV-Vis spectra, oxidation of L-tyrosine by tyrosinase); format: biochemical; conditions: 2.0 µmol/L sample, 0-12 min
Experimental: The effect of tyrosinase (Worthington, USA) on the catalysis of L-tyrosine to dopachrome was determined using the method described by Hiroki, with slight modifications. The total reaction volume was 3 mL. […] The change in the absorption spectrum was determined using a Hitachi U3000 UV-visible spectrophotometer at 30°C isothermal conditions. The scanning wavelength ranged from 250 nm to 600 nm. The scanning frequency was 2 min, and the scanning time was 12 min. Thus, the changes in the absorption spectrum over time were obtained.

mushroom tyrosinase [4] = experiment: Effect on the enzyme-catalysed process (N-acetyl-L-tyrosine as substrate, HPLC); format: biochemical; conditions: 175.9 µmol/L sample, 0-60 min
Experimental: The effect of the enzyme-catalysed process was determined using a previously described method, with slight modifications. In total, 100 mg N-acetyl-L-tyrosine was dissolved using NaH2PO4-Na2HPO4 temporary buffer solution (pH 6.8), and the volume was set to 100 mL. In total, 0.25 mg/mL enzyme solution and a certain concentration of the sample solution were prepared. All the solutions were filtered using a syringe filter with an aperture of 0.22 µm. The components of the reaction system were as follows: 80 µL N-acetyl-L-tyrosine was mixed with 10 µL sample solution and incubated at 30°C for 5 min, and then 10 µL enzyme solution was added. During the period from 0–60 min, 20 µL mixed solution was injected into the HPLC system every 10 min to detect changes in N-acetyl-L-tyrosine. The HPLC conditions were as follows: a Shimadzu HPLC pump equipped with a Shimadzu 9082652 VP-ODS column (250 mm×4.6 mm). The detection wavelength was 275 nm. The injection volume was 10 µL, and the flow-rate was 1.0 mL/min. The mobile phases were A (water) and B (acetonitrile), which were prepared according to the following linear procedure: 0–8 min, A/B = 85:15 (v/v). All analyses were performed at room temperature.

[5] = Effect on the non-enzyme-catalysed process (redox reaction of L-DOPA and p-benzoquinone, HPLC); conditions: HPLC at 245 nm and 280 nm
Experimental: The effect of the non-enzyme-catalysed process was determined by a previously described method, with slight modifications. The HPLC conditions were as follows: a Shimadzu HPLC pump equipped with a Shimadzu VP-ODS column (250 mm×4.6 mm). The detection wavelengths were 245 nm and 280 nm. The injection volume was 20 µL, and the flow-rate was 1.0 mL/min. The mobile phases were A (0.4% aqueous acetic acid) and B (acetonitrile), which were prepared according to the following linear procedure: 0–10 min, A/B = 90:10 (v/v).

tyrosinase = target: tyrosinase; set-up: method as in PMID 22878208; conditions: read-out: IC50 of tyrosinase inhibitory activity; cited from earlier work
mushroom tyrosinase [6] = conditions: cited from earlier work
[7] = cited from earlier work
[8] = set-up: method as in PMID 8951165; conditions: rats, cited from earlier work
intestinal bacteria = conditions: cited from earlier work
mushroom tyrosinase [9] = experiment: Mushroom tyrosinase inhibition (literature values); format: biochemical; conditions: monophenolase
[10] = MA isolated from ethanol extract of roots of Morus alba, read-out: Tyrosinase inhibitory activity

SMILES	Inhibition type [1]	KIS (inhibition constant of the enzyme-substrate complex) [1] [µmol/L]	Inhibition mechanism [1]	Inhibition type [2]	Inhibition mechanism [2]	Effect on formation of dopachrome (mushroom tyrosinase [3])	Change in content of N-acetyl-L-tyrosine (mushroom tyrosinase [4])	Effect on redox reaction of L-DOPA and p-benzoquinone (non-enzymatic process) [5]	IC50 (mushroom tyrosinase [6]; [10]) [µM]	also measured
OC[C@H]1O[C@@H](Oc2cc(O)cc(/C=C/c3ccc(O[C@@H]4O[C@H](CO)[C@@H](O)[C@H](O)[C@H]4O)cc3O)c2)[C@H](O)[C@@H](O)[C@@H]1O [MA, oxyresveratrol-4-O-β-D-glucopyranosyl-3′-O-β-D-glucopyranoside]	mixed type 1	0.177	reversible	competitive	reversible	inhibited the formation of dopachrome	did not change	not influenced; also recorded: no effect	53.6	IC50 (tyrosinase): 42.1 µM; Inhibition type (mushroom tyrosinase [6]; L-tyrosine and L-DOPA as substrates): competitive; Permeability [7]: poor permeability; Bioavailability ([8]; oral administration of mulberry root acetone extract): approximately 1%; Absorption rate ([8]; oral, most MA transformed to OR and transferred into circulating blood, estimated): 50%; Metabolism by intestinal bacteria (intestinal bacteria): rapidly deglucosylated and transformed into OR
Oc1cc(O)cc(/C=C/c2ccc(O)cc2O)c1 [OR, oxyresveratrol]	mixed type 1	0.662	reversible	Non-competitive	reversible	inhibited the formation of dopachrome	did not change	not influenced	0.49	KIS (inhibition constant of the enzyme-substrate complex) ([2]; enzyme-substrate complex): 2.95 µmol/L; Difference in IC50 between literature and this paper (mushroom tyrosinase [9]; compared with ref 8): 8 fold; Difference in IC50 between literature and this paper (mushroom tyrosinase [9]; printed as lower than our experiment, compared with ref 6): approximately 4 fold; Inhibition mechanism (mushroom tyrosinase [6]; L-tyrosine as the substrate): reversibly inhibited; Inhibition type (mushroom tyrosinase [6]; L-tyrosine as the substrate): non-competitive; IC50 (mushroom tyrosinase [6]; depending on the assay conditions, read-out: IC50): 0.46 to 1.1 µM
